Measurements taken from ChEMBL document CHEMBL2311515, “Synthesis and evaluation of antibacterial activity of 7-alkyloxy-4,5-dihydro-imidazo[1,2-a]quinoline derivatives” (2013).
≈ marks a conversion by molar mass, not a printed value.

Legend:
Assay type in all cases: functional
[1] = tested on: Escherichia coli; assay: Antibacterial activity against Escherichia coli ATCC 8739 assessed as growth inhibition after 20 hrs by NCCLS broth microdilution method; details: ATCC 8739, 20 h
[2] = tested on: Staphylococcus aureus; assay: Antibacterial activity against Staphylococcus aureus ATCC 29213 assessed as growth inhibition after 20 hrs by NCCLS broth microdilution method; details: ATCC 29213, 20 h
[3] = tested on: Proteus vulgaris; assay: Ratio of ciprofloxacin MIC to compound MIC for Proteus vulgaris ATCC 35659
[4] = tested on: Proteus vulgaris; assay: Ratio of amoxicillin MIC to compound MIC for Proteus vulgaris ATCC 35659
[5] = tested on: Salmonella; assay: Antibacterial activity against Salmonella ATCC 14028 assessed as growth inhibition after 20 hrs by NCCLS broth microdilution method; details: ATCC 14028, 20 h
[6] = tested on: Klebsiella pneumoniae; assay: Antibacterial activity against Klebsiella pneumoniae ATCC 10031 assessed as growth inhibition after 20 hrs by NCCLS broth microdilution method; details: ATCC 10031, 20 h
[7] = tested on: Pseudomonas aeruginosa; assay: Antibacterial activity against Pseudomonas aeruginosa ATCC 27853 assessed as growth inhibition after 20 hrs by NCCLS broth microdilution method; details: ATCC 27853, 20 h
[8] = tested on: Proteus vulgaris; assay: Antibacterial activity against Proteus vulgaris ATCC 35659 assessed as growth inhibition after 20 hrs by NCCLS broth microdilution method; details: ATCC 35659, 20 h
[9] = tested on: Pasteurella sp.; assay: Antibacterial activity against Pasteurella ATCC 6529 assessed as growth inhibition after 20 hrs by NCCLS broth microdilution method; details: ATCC 6529, 20 h

SMILES	MIC [1] [µg/mL]	MIC [2] [µg/mL]	other results
CCCCCCOc1ccc2c(c1)CCc1nccn1-2	16 (≈ 59.2 µM)	75 (≈ 277 µM)	
CCCCCCCOc1ccc2c(c1)CCc1nccn1-2	0.5 (≈ 1.76 µM)	50 (≈ 176 µM)	Ratio [3]: 8; Ratio [4]: 8; MIC [5]: 64 µg/mL (≈ 225 µM); MIC [6]: > 128 µg/mL; MIC [7]: 16 µg/mL (≈ 56.3 µM); MIC [8]: 16 µg/mL (≈ 56.3 µM); MIC [9]: 2 µg/mL (≈ 7.03 µM)
CCCCCCCCOc1ccc2c(c1)CCc1nccn1-2	25 (≈ 83.8 µM)	50 (≈ 168 µM)	
CCCCCCCCCOc1ccc2c(c1)CCc1nccn1-2	50 (≈ 160 µM)	50 (≈ 160 µM)	
CCCCCCCCCCOc1ccc2c(c1)CCc1nccn1-2	50 (≈ 153 µM)	100 (≈ 306 µM)	
c1ccc(COc2ccc3c(c2)CCc2nccn2-3)cc1	50 (≈ 181 µM)	200 (≈ 724 µM)	
Fc1ccccc1COc1ccc2c(c1)CCc1nccn1-2	50 (≈ 170 µM)	150 (≈ 510 µM)	
Fc1cccc(COc2ccc3c(c2)CCc2nccn2-3)c1	50 (≈ 170 µM)	150 (≈ 510 µM)	
Fc1ccc(COc2ccc3c(c2)CCc2nccn2-3)cc1	50 (≈ 170 µM)	50 (≈ 170 µM)	
Clc1ccccc1COc1ccc2c(c1)CCc1nccn1-2	100 (≈ 322 µM)	150 (≈ 483 µM)	
Clc1cccc(COc2ccc3c(c2)CCc2nccn2-3)c1	50 (≈ 161 µM)	150 (≈ 483 µM)	
Clc1ccc(COc2ccc3c(c2)CCc2nccn2-3)cc1	50 (≈ 161 µM)	50 (≈ 161 µM)	
Brc1ccccc1COc1ccc2c(c1)CCc1nccn1-2	50 (≈ 141 µM)	100 (≈ 282 µM)	
Brc1cccc(COc2ccc3c(c2)CCc2nccn2-3)c1	50 (≈ 141 µM)	100 (≈ 282 µM)	
Brc1ccc(COc2ccc3c(c2)CCc2nccn2-3)cc1	25 (≈ 70.4 µM)	50 (≈ 141 µM)	
Cc1ccc(COc2ccc3c(c2)CCc2nccn2-3)cc1	25 (≈ 86.1 µM)	50 (≈ 172 µM)	
COc1ccc(COc2ccc3c(c2)CCc2nccn2-3)cc1	50 (≈ 163 µM)	100 (≈ 326 µM)	
CCCOc1ccc2c(c1)CCc1nccn1-2	50 (≈ 219 µM)	150 (≈ 657 µM)	
CCCCOc1ccc2c(c1)CCc1nccn1-2	50 (≈ 206 µM)	150 (≈ 619 µM)	
CCCCCOc1ccc2c(c1)CCc1nccn1-2	50 (≈ 195 µM)	100 (≈ 390 µM)	
CC1(C)S[C@@H]2[C@H](NC(=O)[C@H](N)c3ccc(O)cc3)C(=O)N2[C@H]1C(=O)O [AMOXICILLIN]	150 (≈ 410 µM)	25 (≈ 68.4 µM)	MIC [5]: > 128 µg/mL; MIC [6]: > 128 µg/mL; MIC [7]: 16 µg/mL (≈ 43.8 µM); MIC [8]: > 128 µg/mL; MIC [9]: 16 µg/mL (≈ 43.8 µM)
O=C(O)c1cn(C2CC2)c2cc(N3CCNCC3)c(F)cc2c1=O [CIPROFLOXACIN]			MIC [5]: > 128 µg/mL; MIC [6]: 4 µg/mL (≈ 12.1 µM); MIC [7]: 4 µg/mL (≈ 12.1 µM); MIC [8]: 128 µg/mL (≈ 386 µM); MIC [9]: 128 µg/mL (≈ 386 µM)
